Biological target: T1, progesterone receptor (Oryctolagus cuniculus, UniProt P06186)
T1 construct: 'Rabbit, progesterone = 100%; from tissue; host or cells: Rabbit; From own knowledge, the cited Philibert procedure uses uterine cytosol
T1 sequence (P06186 1-930): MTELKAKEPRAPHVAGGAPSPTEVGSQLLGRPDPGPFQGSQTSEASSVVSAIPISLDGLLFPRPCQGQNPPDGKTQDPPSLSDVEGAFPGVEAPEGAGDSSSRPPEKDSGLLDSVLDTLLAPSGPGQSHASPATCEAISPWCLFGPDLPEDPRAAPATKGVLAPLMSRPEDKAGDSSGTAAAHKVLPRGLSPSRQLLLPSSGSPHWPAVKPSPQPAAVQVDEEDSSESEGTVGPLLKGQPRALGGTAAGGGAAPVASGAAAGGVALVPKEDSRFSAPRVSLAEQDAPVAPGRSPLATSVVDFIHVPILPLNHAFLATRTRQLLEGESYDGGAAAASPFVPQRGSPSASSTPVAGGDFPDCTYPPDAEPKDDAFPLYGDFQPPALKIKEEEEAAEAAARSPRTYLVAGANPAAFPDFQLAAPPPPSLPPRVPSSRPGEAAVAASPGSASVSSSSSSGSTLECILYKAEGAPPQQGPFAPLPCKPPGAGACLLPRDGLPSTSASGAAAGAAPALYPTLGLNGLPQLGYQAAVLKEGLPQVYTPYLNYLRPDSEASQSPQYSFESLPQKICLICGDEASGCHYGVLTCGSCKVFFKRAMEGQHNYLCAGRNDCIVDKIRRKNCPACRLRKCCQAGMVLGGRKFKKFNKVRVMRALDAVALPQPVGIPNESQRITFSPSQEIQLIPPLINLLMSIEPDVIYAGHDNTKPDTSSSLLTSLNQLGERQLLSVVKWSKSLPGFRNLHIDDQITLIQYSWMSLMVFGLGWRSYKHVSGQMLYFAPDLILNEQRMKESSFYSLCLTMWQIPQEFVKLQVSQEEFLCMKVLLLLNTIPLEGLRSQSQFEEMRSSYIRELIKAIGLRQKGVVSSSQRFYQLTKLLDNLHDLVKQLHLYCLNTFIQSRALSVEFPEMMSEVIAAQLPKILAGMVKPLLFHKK
Experiment: progesterone receptor relative binding affinity (procedure of Philibert et al.)
Conditions: Rabbit, progesterone = 100%
Source text: Biological information in the form of progesterone receptor relative binding affinity data determined according to the procedure of D. Philibert et al, Endocrinology 101, 1850 (1977) set forth in TABLE 1 discloses the 11β-difluoromethyl and (E)-11-fluoromethylene steroids to be useful as progestins.
'Rabbit, progesterone = 100%

Row | Structure (SMILES) | Relative Binding Affinity' (%)
1 | CC#C[C@]1(O)CC[C@H]2[C@H]3[C@H]([C@@H](C(F)F)C[C@@]21C)[C@H]1CCC(=O)C=C1C[C@H]3C [11β-Difluoromethyl-17β-hydroxy-7α-methyl-17α-propynylestr-4-en-3-one] | 41%
2 | CC#C[C@]1(O)CC[C@H]2[C@@H]3CCC4C=CCC[C@@H]4[C@H]3[C@@H](C(F)F)C[C@@]21C (stereo partly drawn) [11β-Difluoromethyl-17β-hydroxy-17α-propynylestr-3-ene] | 2%
3 | CC#CC1(OC(C)=O)CCC2C3CCC4=CC(=O)CCC4C3C(C(F)F)CC21C (stereo not drawn) [11β-Difluoromethyl-17β-hydroxy-17α-propynylestr-4-en-3-one 17-acetate] | 49%
4 | CC#CC1(OC)CCC2C3CCC4=CC(=O)CCC4C3C(C(F)F)CC21C (stereo not drawn) [11β-Difluoromethyl-17β-hydroxy-17α-propynylestr-4-en-3-one 17-methyl ether] | 90%
5 | CC#C[C@]1(O)CC[C@H]2[C@@H]3CCC4=CC(=O)CC[C@@H]4[C@H]3[C@@H](C(F)F)C[C@@]21C [11β-Difluoromethyl-17β-hydroxy-17α-propynylestr-4-en-3-one] | 68%
6 | CC#C[C@]1(O)CC[C@H]2[C@@H]3CCC4=CCCC[C@@H]4[C@H]3[C@@H](C(F)F)C[C@@]21C [11β-Difluoromethyl-17β-hydroxy-17α-propynylestr-4-ene] | 3%
7 | CO[C@H]1CC[C@H]2[C@@H]3CCC4=CC(=O)CC[C@@H]4[C@H]3[C@@H](C(F)F)C[C@]12C [11β-Difluoromethyl-17β-hydroxyestr-4-en-3-one 17-methyl ether] | 66%
8 | C[C@]12C[C@H](C(F)F)[C@H]3[C@@H](CCC4=CC(=O)CC[C@@H]43)[C@@H]1CC[C@@H]2O [11β-Difluoromethyl-17β-hydroxyestr-4-en-3-one] | 13%
9 | C#C[C@]1(O)CC[C@H]2[C@@H]3CCC4=CC(=O)CC[C@@H]4[C@H]3/C(=C/F)C[C@@]21CC [13β-Ethyl-17α-ethynyl-(E)-11-fluoromethylene-17β-hydroxygon-4-en-3-one] | 100%
10 | CC#C[C@]1(O)CC[C@H]2[C@@H]3CCC4=CC(=O)CC[C@@H]4[C@H]3/C(=C/F)C[C@@]21CC [13β-Ethyl-(E)-11-fluoromethylene-17β-hydroxy-17α-propynylgon-4-en-3-one] | 63%
11 | CC#C[C@]1(O)CC[C@H]2[C@@H]3CCC4=CC(=O)CC[C@@H]4[C@H]3/C(=C\F)C[C@@]21CC [13β-Ethyl-(Z)-11-fluoromethylene-17β-hydroxy-17α-propynylgon-4-en-3-one] | 149%
12 | C#C[C@]1(O)CC[C@H]2[C@H]3[C@H]([C@@H](C(F)F)C[C@@]21C)[C@H]1CCC(=O)C=C1C[C@H]3C [17α-Ethynyl-11β-difluoromethyl-17β-hydroxy-7α-methylestr-4-en-3-one] | 63%
13 | C#CC1(OC(C)=O)CCC2C3CCC4=CC(=O)CCC4C3C(C(F)F)CC21C (stereo not drawn) [17α-Ethynyl-11β-difluoromethyl-17β-hydroxyestr-4-en-3-one 17-acetate] | 50%
14 | C#CC1(OC)CCC2C3CCC4=CC(=O)CCC4C3C(C(F)F)CC21C (stereo not drawn) [17α-Ethynyl-11β-difluoromethyl-17β-hydroxyestr-4-en-3-one 17-methyl ether] | 145%
15 | C#CC1(O)CCC2C3CCC4=CC5(CCC4C3C(C(F)F)CC21C)SCCS5 (stereo not drawn) [17α-Ethynyl-11β-difluoromethyl-17β-hydroxyestr-4-ene-3-one 3-ethanedithiol ketal] | 92%
16 | C#C[C@]1(O)CC[C@H]2[C@@H]3CCC4=CCCC[C@@H]4[C@H]3[C@@H](C(F)F)C[C@@]21C [17α-Ethynyl-11β-difluoromethyl-17β-hydroxyestr-4-ene] | 2%
17 | C#C[C@]1(O)CC[C@H]2[C@H]3[C@H](/C(=C/F)C[C@@]21C)[C@H]1CCC(=O)C=C1C[C@H]3C [17α-Ethynyl-(E)-11-fluoromethylene-17β-hydroxy-7α-methylestr-4-en-3-one] | 34%
18 | C#C[C@]1(O)CC[C@H]2[C@@H]3CCC4=CC(=O)CC[C@@H]4[C@H]3/C(=C/F)C[C@@]21C [17α-Ethynyl-(E)-11-fluoromethylene-17β-hydroxyestr-4-en-3-one] | 74%
19 | C#C[C@]1(O)CC[C@H]2[C@@H]3CCC4=CC(=O)CC[C@@H]4[C@H]3/C(=C\F)C[C@@]21C [17α-Ethynyl-(Z)-11-fluoromethylene-17β-hydroxyestr-4-en-3-one] | 149%
20 | CC#C[C@]1(O)CC[C@H]2[C@H]3[C@H](/C(=C/F)C[C@@]21C)[C@H]1CCC(=O)C=C1C[C@H]3C [(E)-11-Fluoromethylene-17β-hydroxy-7α-methyl-17α-propynylestr-4-en-3-one] | 58%
21 | CC#CC1(OC)CCC2C3CCC4=CC(=O)CCC4C3C(=CF)CC21C (stereo not drawn) [(E)-11-Fluoromethylene-17β-hydroxy-17α-propynylestr-4-en-3-one 17-methyl ether] | 71%
22 | CC#C[C@]1(O)CC[C@H]2[C@@H]3CCC4=CC(=O)CC[C@@H]4[C@H]3/C(=C/F)C[C@@]21C [(E)-11-fluoromethylene-17β-hydroxy-17α-propynylestr-4-ene-3-one] | 18%
23 | CC#C[C@]1(O)CC[C@H]2[C@@H]3CCC4=CC(=O)CC[C@@H]4[C@H]3/C(=C\F)C[C@@]21C [(Z)-11-Fluoromethylene-17β-hydroxy-17-propynylestr-4-en-3-one] | 150%

From patent EP0145493A2, “11-Difluoromethyl and 11-fluoromethylene steroids” (THE UPJOHN COMPANY, priority 1983, dated 1985)
